# Article PMC4051601, “Identification of NAD(P)H Quinone Oxidoreductase Activity in Azoreductases from P. aeruginosa: Azoreductases and NAD(P)H Quinone Oxidoreductases Belong to the Same FMN-Dependent Superfamily of Enzymes” (PLoS ONE, 2014)
# What was measured:
# paAzoR1 (PA0785) [1] = target: T1, paAzoR1 (PA0785) (Pseudomonas aeruginosa, UniProt Q9I5F3); assay: X-ray crystallography, […] A; format: binding
# T1 construct: gene azoR1; pure recombinant protein, expressed and purified as described previously; dimer with FMN
# T1 sequence (Q9I5F3 1-212): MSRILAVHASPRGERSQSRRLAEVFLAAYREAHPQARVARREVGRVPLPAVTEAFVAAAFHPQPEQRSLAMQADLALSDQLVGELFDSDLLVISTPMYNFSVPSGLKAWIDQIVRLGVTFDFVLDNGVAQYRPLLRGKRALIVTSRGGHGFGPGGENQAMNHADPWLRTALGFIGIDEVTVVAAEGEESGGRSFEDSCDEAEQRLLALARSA
# paAzoR1 (PA0785) [2] = target: T1, paAzoR1 (PA0785); assay: NADPH oxidation at […] nm; format: biochemical; settings: 50 uM quinone, 500 uM NADPH, 20 mM Tris-HCl pH 8, 100 mM NaCl, 5% DMSO; only a specific rate given
# paAzoR3 (PA3223) = target: T2, paAzoR3 (PA3223) (Pseudomonas aeruginosa, UniProt Q9HZ17); assay: NADH oxidation at […] nm; format: biochemical; settings: 50 uM quinone, 500 uM NADH, 20 mM Tris-HCl pH 8, 100 mM NaCl, 5% DMSO; only a specific rate given
# T2 construct: gene azoR3; pure recombinant protein, expressed and purified as described previously
# T2 sequence (Q9HZ17 1-213): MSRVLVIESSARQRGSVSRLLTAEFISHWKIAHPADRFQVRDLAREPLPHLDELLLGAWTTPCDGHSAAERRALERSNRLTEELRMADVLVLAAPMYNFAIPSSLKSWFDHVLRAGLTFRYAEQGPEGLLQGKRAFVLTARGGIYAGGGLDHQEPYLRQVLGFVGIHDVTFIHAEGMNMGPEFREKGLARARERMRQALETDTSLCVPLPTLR
# paAzoR1 (PA0785) [3] = target: T1, paAzoR1 (PA0785); assay: X-ray crystallography, […] A; format: binding; settings: FMN-bound enzyme; one of two active sites; occupancy 0.5; hydrogen bond to Tyr131; co-crystallised with 2 mM ligand, pH 8
structure (smiles),measurement,setting,value
"O=C1c2ccccc2C(=O)c2cc(S(=O)(=O)O)ccc21 [AQN, anthraquinone-2-sulphonate]","X-ray crystallography, 1.8 A","paAzoR1 (PA0785) [1]; FMN-bound enzyme, one of two active sites, pi-stacking on FMN, co-crystallised with 2 mM ligand, pH 8",structures of paAzoR1 bound to two quinone substrates (UQ1 and AQN) have been solved
"O=C1C=CC(=O)C=C1 [Bzq, Benzoquinone]",NADPH oxidation at 340 nm,paAzoR1 (PA0785) [2],paAzoR1 has a preference for benzoquinones e.g. Bzq (Fig. 3a)
Cc1cc2nc3c(=O)[nH]c(=O)nc-3n(C[C@H](O)[C@H](O)[C@H](O)COP(=O)(O)O)c2cc1C [FMN],"X-ray crystallography, 1.8 A","paAzoR1 (PA0785) [1]; structure with AQN, FMN also seen in the UQ1 complex (4N9Q)",AQN also forms π-π stacking interactions with the central ring of FMN
"CC1=CC(=O)c2c(O)cccc2C1=O [Plu, Plumbagin]",NADH oxidation at 340 nm,paAzoR3 (PA3223),paAzoR3 prefers naphthoquinones e.g. Plu (Fig. 3c)
"COC1=C(OC)C(=O)C(CC=C(C)C)=C(C)C1=O [UQ1, Coenzyme Q1]","X-ray crystallography, 2.0 A",paAzoR1 (PA0785) [3],structures of paAzoR1 bound to two quinone substrates (UQ1 and AQN) have been solved
